The results in this text go back to US12290533B2, “Extracellular vesicles and methods of using” (NUtech Ventures, priority 2018, dated 2025).

Entries after “also recorded” stand apart in the source; their conditions may differ.

Series [1] in a line: Bovine milk exosomes and miRNAs in embryos and placentas of pregnant mice at E16.5. In kind it is in vivo. The text has this:
The bioavailability of bovine milk exosomes and miRNAs in fetal circulation of pregnant mice was examined. DiR-labelled bovine milk exosomes (or unlabeled control bovine milk exosomes) were adminstered to pregnant mice at embryonic day 16.5 (E16.5) to embryos and placentas. […] Three independent experiments per each treatment and control.

The test system of series [2] is human umbilical vein endothelial cells (HUVEC). In words: Uptake of fluorophore-labeled cow's milk exosomes into HUVECs. In kind it is cell-based.
Series [3] relates to human colon carcinoma Caco-2 cells. In words: Uptake of FM 4-64-labeled bovine milk exosomes into Caco-2 cells. The conditions noted are these: for effect on exosome transport: milk exosomes treated with protease.
Description: Exosomes were isolated from bovine milk by differential centrifugation and authenticated as recommended by International Society for Extracellular Vesicles. […] Controls were incubated with solvent. Exosomes were labeled with FM4-64, and unlabeled fluorophore was removed. […] Transport kinetics were modelled using the Michaelis-Menten equation. One-way ANOVA and Bonferroni's multiple comparison were used for statistical analyses.
Caco-2 cells and IEC-6 cells were seeded at a density of 20,000 and 7000 cells/well, respectively, in 96-well plates, and allowed to adhere for 48 h, when cells were 75% confluent. The exosomes were labeled with the fluorophore, FM 4-64 (Molecular Probes). One microliter of a stock solution of FM 4-64 (5.9 mmol/L) was added to 1 mL of exosome suspension and incubated for 15 min at 37° C., and excess FM 4-64 was removed by ultracentrifugation at 120,000 3 g at 4° C. for 90 min. Transport studies were conducted using FM4-64-labeled exosomes using 3-110 mg of exosomal protein/well (Caco-2 cells) or 27-652 mg of exosomal protein/well (IEC-6 cells) and incubating cells for various periods of time to assess saturation kinetics; blanks were created using solvent. Assays were calibrated by quantifying the fluorescence of a known mass of exosomes labeled with FM 4-64. Exosome uptake was analyzed by measuring the cell fluorescence at 515 (excitation) and 640 nm (emission) using a Biotek FLx800 plate reader (BioTek Instru-ments). Fluorescence readings were corrected for cell autofluorescence by subtracting signals measured in cells incubated with exosome-depleted media. Transport kinetics was modeled using the Michaelis-Menten equation and nonlinear regression; modeling was conducted using GraphPad Prism 6.0 (GraphPad Software). […] Subsequent transport studies were conducted using incubation times of 8 hours for Caco-2 cells (FIG. 34B).
Transport kinetics was modeled using the Michaelis-Menten equation.
The nature of series [4]: Bioavailability and distribution of fluorophore-labeled RNA and microRNA cargos in bovine milk exosomes. The series is classed as in vivo, Balb/c mice. The conditions noted are these: for tissue distribution of fluorophore-labeled microRNA transfected into milk exosomes: oral gavage, 6 hours. As for the experimental part: Exosomes were isolated from bovine milk using ultracentrifugation.
Labeling of exosomes and RNAs with synthetic fluorophores. […] All exosome preparations were utilized within 2 hours.

For series [5] the following is noted: mouse, in vivo.
Description: Exosomes were isolated from bovine milk using ultracentrifugation. Exosome membranes were labeled using the fluorophore, DiR, as described elsewhere herein. […] Identity, integrity, fine dispersion, and count of exosomes were assessed using transmission electron microscopy, western blots, and nanoparticle tracker (not shown). Exosomes were administered orally by gavage (1×10^12 exosomes/g) in BALB/c mice. Absorption and distribution of exosomes and their cargos was monitored at timed intervals for up to 24 h using an iBox® Small Animal Imaging system and LiCor Odyssey CLx. At timed intervals, mice were euthanized and various tissues were excised and collected for densitometry analysis using VisionWorks®LS and Image Studio software.
Studies were conducted in female Balb/c mice (Jackson Laboratory, stock number 000651), ages 8 to 20 weeks, unless noted otherwise.
Exosomes were labeled with the lipophilic fluorophore 1,1-dioctadecyl-3,3,3,3-tetrametylindotricarbocyanine iodide (DiR) as described elsewhere (see, e.g., Wiklander et al., J. Extracell. Vesicles 4:26316 (2015)). […] Free dyes and extra-exosomal synthetic microRNAs were removed by two PBS washes (120,000×g for 60 minutes), and 1×10^12 exosomes were administered per g body weight in a volume of less than 150 μl. […] All exosome preparations were utilized within 2 hours.
The subject of series [6] is rat small intestinal IEC-6 cells. In words: Uptake of FM 4-64-labeled bovine milk exosomes into IEC-6 cells. The series is classed as cell-based. The conditions noted are these: exosomes treated with 0.105 mMol/L trypsin for 30 mins.

With “miR-30d: microRNA loaded into bovine milk exosomes; uguaaacauccccgacuggaagcu, SEQ ID NO: 13 (UGUAAACAUCCCCGACUGGAAGCU; listed as RNA, further chemistry not given here)”, the “presence in embryo and placenta” value in series [1] was “present in both embryo and placenta”. Turning to `O=C[C@H](O)[C@@H](O)[C@@H](O)[C@H](O)CO` [D-galactose], the “effect of carbohydrate competitor on exosome uptake” value in series [2] (150 mmol/L, pretreated 30 min) was “caused a significant decrease in exosome uptake”. As for “Glu-C: serine protease cleaving at glutamic acid and aspartic acid residues”, in series [3], the “effect on exosome transport” value is “significant decrease in exosome transport into CaCo-2 cells”. “MiR-34a: synthetic IRDye-labeled microRNA transfected into bovine milk exosomes; uggcagugucuuagcugguugu, SEQ ID NO: 8 (UGGCAGUGUCUUAGCUGGUUGU; IRDye fluorophore label, position not given here, synthetic)”: in series [4], the “tissue distribution of fluorophore-labeled microRNA transfected into milk exosomes” value is “brain”.

In the case of “miR-320a: synthetic IRDye-labeled microRNA transfected into bovine milk exosomes; aaaagcuggguugagagggcga, SEQ ID NO: 10 (AAAAGCUGGGUUGAGAGGGCGA; IRDye fluorophore label, position not given here, synthetic)”, in series [4] (3 hours after intravenous injection), the “tissue distribution of IRDye-labeled microRNA transfected into milk exosomes” value is “accumulated primarily in liver with small amounts being detectable in kidneys, lungs and spleen 3 hours after intravenous injection”. Also, the apparent bioavailability in series [4] (hepatic densitometry 3 hours after intravenous injection vs 6 hours after oral gavage) is on record as 25.4±8.7%. For the same molecule, in series [4], the “tissue distribution of fluorophore-labeled microRNA transfected into milk exosomes” value is “accumulated primarily in liver, spleen and kidneys 6 hours after oral gavage”. `C=C1[C@@H](C)[C@H]2[C@H](Cc3ccccc3)NC(=O)[C@]23[C@H](OC(C)=O)/C=C/[C@@](C)(O)C(=O)[C@@H](C)C/C=C/[C@H]3[C@@H]1O` [cytochalasin D]: in series [2] (exosomes treated with proteinase K, or transport in presence of D-galactose, excess unlabeled exosomes or cytochalasin D), the “decrease of transport rates compared with controls” value stood at 50%. For “miR-375: synthetic 5ATT0633N-labeled microRNA, with or without quencher 3IAbRQSp, transfected into milk exosomes; uuuuguucguucggcucgcguga, SEQ ID NO: 11 (UUUUGUUCGUUCGGCUCGCGUGA; listed as RNA, further chemistry not given here)”, the “signal of microRNA conjugated to fluorophore and quencher” value in series [4] (administered orally, signal indicates degradation) is “only a minimal signal was detected in heart and spleen”. For the same molecule, in series [4], the “tissue distribution of fluorophore-labeled microRNA transfected into milk exosomes” value was “the signal localized primarily to the intestines, with minor signal being detectable in kidneys, brain and liver; also recorded: accumulated in brain, liver, kidneys and intestinal mucosa in mice”. With trypsin, in series [5], the “tissue accumulation of exosomes depleted of surface proteins” value was “reduced accumulation of exosomes in the liver and lungs after intravenous injection”. For the same molecule, in series [3] (exosomes treated with protease, control 88±1, cell type not named at the place), the “transport rates (Vmax)” value stood at 40±0.6 arbitrary units. Also, in series [3], the “effect on exosome transport” value is listed as “significant decrease in exosome transport into CaCo-2 cells”. The same molecule gave an exosome uptake in series [6] of 82%+8%.
